One experiment concerns the target human recombinant FGFR2 (Homo sapiens, UniProt P21802). In words: FGFR2 enzyme assay (LabChip EZ Reader).
Another experiment has as its target human recombinant FGFR3 (Homo sapiens, UniProt P22607). Briefly: FGFR3 enzyme assay (LabChip EZ Reader).
A further experiment has as its system FGFR3_S249C/NIH3T3 cells. Briefly: Growth assay of cells with forced expression of mutant FGFR3. To be noted: Mus musculus, NIH3T3, 120 h; 5 days after addition, CellTiter-Glo; read-out: IC50 (growth inhibition). Type of experiment: cell-based. As for the experimental part:
FGFR3_S249C/NIH3T3 cells were added to a 96-well spheroid plate (U bottom) at a concentration of 3000 cells/well/90 μL, and the compound solution (10 μL) was added thereto on the next day (final DMSO concentration: 0.1%). The compound solution was prepared by serially diluting the compound with DMSO at a 3-fold common ratio (9 portions and DMSO only) from the maximum concentration of 10 mM and then diluted 100-fold with a culture medium (D-MEM, 10% FBS). 5 days after the addition of the compound, the growth inhibition caused by the compound was evaluated by Promega (G7573) CellTiter-Glo™ Luminescent Cell Viability Assay.
In general terms: ATP-based viability assays read luminescence as a measure of living cells.

Experiment [1] concerns UM-UC-14 (FGFR3_S249C-positive cells, bladder cancer). Briefly: Antitumor test on UM-UC-14 subcutaneous xenograft. Type of experiment: in vivo, nude mice. The conditions noted are these: oral, 1 mg/kg/day, once a day; for inhibition in vivo at 1 mg/kg/day: Mus musculus, UMUC14, 264 h, tumor volume at Day 11; for Antitumor Activity, % regression: tumor volume at Day 11 vs Day 1. As for the experimental part: 3×10^6 UM-UC-14 cells per 0.1 mL (PBS+matrigel, 1:1) were inoculated subcutaneously into the right flank of nude mice (CAnN, Cg-Foxn1nu/CrlCrlj (nu/nu), male, 4- to 5-week-old), and when their tumor size reached about 250 mm^3, drug administration was started (Day 1). The drug was administered once a day and the tumor size was measured with a caliper and the body weight was also measured every two or three days. The antitumor effect was finally determined based on the tumor volume (mm^3; minor axis (mm)×minor axis (mm)×major axis (mm)/2) at Day 11 (n=3-5). To the control group, 0.5% MC (methyl cellulose) was administered. […] “% regression” indicates what percentage of regression could be achieved compared with the tumor volume at Day 1. Here, the tumor volume at Day 1 means tumor volume immediately before drug administration.

Another experiment concerns the target human recombinant FGFR1 (Homo sapiens, UniProt P11362). Briefly: FGFR1 enzyme assay (LabChip EZ Reader).
In experiment [2] the test system is bladder cancer patient-derived cell line RT4. Briefly: Anchorage-independent cell growth inhibition, spheroid plate. Type of experiment: cell-based. To be noted: Homo sapiens, 96 h, 4 days, read-out: growth inhibition rate RT4; for inhibition at 0.001 µM: 1 nM; for inhibition at 0.01 µM: 10 nM; for inhibition at 0.1 µM: 100 nM.
Experiment [3] concerns bladder cancer patient-derived cell line RT-112. The description is as above. Type of experiment: cell-based. The conditions noted are these: Homo sapiens, RT-112, 96 h, 4 days, read-out: growth inhibition rate RT-112.
For experiment [4], the system named is FGFR3-TACC3_v1 (N-FLAG) fusion polypeptide. In words: In vitro kinase activity inhibition (HTRF KinEASE-TK). In kind it is biochemical, human. The conditions noted are these: 100 μM ATP. (In general: TR-FRET usually uses a lanthanide donor and a delayed reading to cut background.)
Experiment [5] has as its system FGFR3-TACC3_v2 (N-FLAG) fusion polypeptide. The description is as above. Type of experiment: biochemical, human. To be noted: 100 μM ATP.
Experiment [6] deals with FGFR3-TACC3_v4-expressing NIH3T3 cells. Briefly: Anchorage-independent cell growth inhibition, spheroid plate. The conditions noted are these: Mus musculus, NIH3T3, 96 h, 4 days, read-out: growth inhibition rate v4; for inhibition at 0.001 µM: 1 nM; for inhibition at 0.01 µM: 10 nM; for inhibition at 0.1 µM: 100 nM. Type of experiment: cell-based. The text has this: Measurement for anchorage-independent cell growth (colony method, etc.) is known to be a system for investigating the anticancer action (pharmacological effect) of compounds (Clinical Oncology, second edition, Cancer and Chemotherapy Publishers Inc.). As a method for measuring the non-adhesive growth of cells, there is the following method using a spheroid plate as referred to above in place of the colony method.
In a 96-well spheroid plate (Sumilon Celltight Spheroid 96U; Sumitomo Bakelite), FGFR3-TACC3_v1-expressing NIH3T3 cells, FGFR3-TACC3_v2-expressing NIH3T3 cells, FGFR3-TACC3_v3-expressing NIH3T3 cells, and FGFR3-TACC3_v4-expressing NIH3T3 cells were each seeded at 1×10^3 cells per well in D-MEM media (Invitrogen) containing 10% fetal bovine serum. […] A well supplemented with only medium was also prepared for a positive control. Culturing was performed overnight in the presence of 5% CO2 at 37° C. followed by addition of test compounds (final concentrations: 100 nM, 10 nM, and 1 nM). As a negative control, DMSO used as a solvent for the compounds was added at the same concentration (0.1%) as in the case of addition of the compounds. Then, culturing was performed in the presence of 5% CO2 at 37° C. for 4 days, and a cell counting reagent (CellTiter-Glo™ Luminescent Cell Viability Assay; Promega) was added and the resulting mixture was stirred for 20 minutes followed by measurement with a luminometer.

In experiment [7] the test system is FGFR3-BAIAP2L1-expressing NIH3T3 cells. Described as above. In kind it is cell-based. The conditions noted are these: Mus musculus, NIH3T3, 96 h, 4 days, read-out: growth inhibition rate FGFR3-BAIAP2L1-expressing NIH3T3 Cells; for inhibition at 0.001 µM: 1 nM; for inhibition at 0.01 µM: 10 nM; for inhibition at 0.1 µM: 100 nM. The procedure: In a 96-well spheroid plate (Sumilon Celltight Spheroid 96U; Sumitomo Bakelite), FGFR3-BAIAP2L1-expressing NIH3T3 cells were seeded at 1×10^3 cells per well in D-MEM medium containing 10% fetal bovine serum. A well supplemented with only medium was also prepared for a positive control. Culturing was performed overnight in the presence of 5% CO2 at 37° C. followed by addition of test compounds (final concentrations: 100 nM, 10 nM, and 1 nM). As a negative control, DMSO used as a solvent for the compounds was added at the same concentration (0.1%) as in the case of addition of the compounds. Then, culturing was performed in the presence of 5% CO2 at 37° C. for 4 days, and a cell counting reagent (CellTiter-Glo™ Luminescent Cell Viability Assay; Promega) was added and the resulting mixture was stirred for 20 minutes followed by measurement with a luminometer.

The subject of experiment [8] is FGFR3-TACC3_v3 (N-FLAG) fusion polypeptide. Briefly: In vitro kinase activity inhibition (HTRF KinEASE-TK). Type of experiment: biochemical, human. The conditions noted are these: 100 μM ATP.

pIC50: −log10 of the molar value.

Chain of human recombinant FGFR2 (P21802 22-821): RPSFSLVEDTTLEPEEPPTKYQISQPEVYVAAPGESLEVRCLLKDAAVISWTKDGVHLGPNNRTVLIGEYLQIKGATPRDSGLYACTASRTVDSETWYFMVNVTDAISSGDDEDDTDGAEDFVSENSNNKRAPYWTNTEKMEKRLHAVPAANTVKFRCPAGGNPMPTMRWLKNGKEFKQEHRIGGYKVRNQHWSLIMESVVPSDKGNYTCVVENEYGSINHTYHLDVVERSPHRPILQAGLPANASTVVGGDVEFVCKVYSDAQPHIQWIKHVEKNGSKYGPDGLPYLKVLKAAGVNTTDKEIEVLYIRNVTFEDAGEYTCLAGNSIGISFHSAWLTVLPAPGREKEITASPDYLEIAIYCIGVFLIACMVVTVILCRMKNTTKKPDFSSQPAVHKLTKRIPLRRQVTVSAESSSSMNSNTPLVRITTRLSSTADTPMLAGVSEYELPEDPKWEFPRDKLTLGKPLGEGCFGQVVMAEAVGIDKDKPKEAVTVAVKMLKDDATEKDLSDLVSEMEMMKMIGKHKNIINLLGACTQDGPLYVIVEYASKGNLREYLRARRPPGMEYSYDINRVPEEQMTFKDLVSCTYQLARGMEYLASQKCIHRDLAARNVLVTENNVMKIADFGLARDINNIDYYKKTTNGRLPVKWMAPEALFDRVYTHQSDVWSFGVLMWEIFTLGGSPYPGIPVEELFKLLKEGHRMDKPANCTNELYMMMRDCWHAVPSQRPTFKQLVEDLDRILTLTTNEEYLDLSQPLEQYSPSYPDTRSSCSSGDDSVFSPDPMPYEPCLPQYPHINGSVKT
Chain of human recombinant FGFR1 (P11362 22-822): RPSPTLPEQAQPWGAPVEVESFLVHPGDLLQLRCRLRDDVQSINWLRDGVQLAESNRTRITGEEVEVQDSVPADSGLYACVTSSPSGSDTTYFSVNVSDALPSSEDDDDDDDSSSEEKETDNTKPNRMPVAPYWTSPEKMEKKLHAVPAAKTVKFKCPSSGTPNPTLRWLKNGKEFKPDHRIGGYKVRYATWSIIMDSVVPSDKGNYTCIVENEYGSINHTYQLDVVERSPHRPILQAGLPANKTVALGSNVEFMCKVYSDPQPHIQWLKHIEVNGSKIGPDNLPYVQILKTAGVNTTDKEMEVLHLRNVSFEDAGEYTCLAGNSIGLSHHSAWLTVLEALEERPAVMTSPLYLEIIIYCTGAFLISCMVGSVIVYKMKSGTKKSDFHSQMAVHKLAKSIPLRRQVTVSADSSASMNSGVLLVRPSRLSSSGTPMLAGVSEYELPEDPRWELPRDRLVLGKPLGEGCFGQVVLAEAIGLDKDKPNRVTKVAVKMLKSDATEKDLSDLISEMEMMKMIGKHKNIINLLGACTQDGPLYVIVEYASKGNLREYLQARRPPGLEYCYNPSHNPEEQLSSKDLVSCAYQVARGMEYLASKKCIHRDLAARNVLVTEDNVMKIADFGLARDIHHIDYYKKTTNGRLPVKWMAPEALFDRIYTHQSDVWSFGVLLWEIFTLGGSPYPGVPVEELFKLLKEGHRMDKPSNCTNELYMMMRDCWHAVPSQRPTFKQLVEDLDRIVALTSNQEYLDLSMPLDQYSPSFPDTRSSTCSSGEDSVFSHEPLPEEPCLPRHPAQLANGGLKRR
Chain of human recombinant FGFR3 (P22607 23-806): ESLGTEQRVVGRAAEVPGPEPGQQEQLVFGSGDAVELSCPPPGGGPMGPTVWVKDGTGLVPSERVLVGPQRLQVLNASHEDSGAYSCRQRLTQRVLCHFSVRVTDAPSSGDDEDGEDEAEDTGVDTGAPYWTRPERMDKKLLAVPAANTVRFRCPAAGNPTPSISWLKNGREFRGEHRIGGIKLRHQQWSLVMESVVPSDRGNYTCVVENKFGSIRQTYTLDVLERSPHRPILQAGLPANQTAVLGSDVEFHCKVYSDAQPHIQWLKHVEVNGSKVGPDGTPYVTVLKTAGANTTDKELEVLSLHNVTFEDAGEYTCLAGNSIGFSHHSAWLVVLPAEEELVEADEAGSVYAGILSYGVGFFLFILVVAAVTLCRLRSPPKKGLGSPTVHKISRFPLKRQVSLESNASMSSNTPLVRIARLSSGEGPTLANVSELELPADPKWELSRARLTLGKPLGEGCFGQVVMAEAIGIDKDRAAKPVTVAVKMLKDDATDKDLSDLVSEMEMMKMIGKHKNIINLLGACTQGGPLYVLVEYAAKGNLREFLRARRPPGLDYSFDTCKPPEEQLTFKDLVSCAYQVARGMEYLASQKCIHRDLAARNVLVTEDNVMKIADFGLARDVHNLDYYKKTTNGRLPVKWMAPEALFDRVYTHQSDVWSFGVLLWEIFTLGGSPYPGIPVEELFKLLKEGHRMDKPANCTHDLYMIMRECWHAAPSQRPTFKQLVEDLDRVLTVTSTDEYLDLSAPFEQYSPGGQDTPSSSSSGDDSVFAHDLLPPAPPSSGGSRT
Procedure for human recombinant FGFR1: (§1) The compound was diluted with a solution of dimethyl sulfoxide (DMSO) (10-fold common ratio, 4 portions) before dilution with a reaction buffer (100 mM HEPES (pH7.5), 0.003% Brij-35, 0.004% Tween 20, 0.5 mM DTT, and 10 mM MgCl2) so that the final DMSO concentration was 2%. To 4 μL of the compound solution in a 384-well plate, 2 μL each of FGFR1 enzyme (2 or 3 ng/μL), FGFR2 enzyme (2 ng/μL), or FGFR3 enzyme (6 ng/μL) which were diluted with the reaction buffer was added. […] After the reaction was stopped, the reaction mixture was measured with a LabChip EZ Reader. The IC50 values were calculated by non-linear regression based on the inhibition rates obtained.
Procedure for human recombinant FGFR2: as §1
Procedure for human recombinant FGFR3: as §1

As to `COc1cc(OC)c(Cl)c(COc2cnc(Nc3cnn(C4CCNCC4)c3)nc2)c1Cl` [Example 72], the figures for the negative-log IC50 (pIC50) at human recombinant FGFR2, at human recombinant FGFR3 and in the experiment on FGFR3_S249C/NIH3T3 cells were 8.70, 8.70 and 7.62, respectively. For the same molecule, the inhibition in vivo (usually the drop in the measured response relative to a control, in per cent) at 1 mg/kg/day in experiment [1] was 30%.
Take `COc1cc(Nc2ncc(OCc3c(F)c(OC)cc(OC)c3F)cn2)ccc1N1CCC(N2CCN(C)CC2)CC1` [Example 56]: the negative-log IC50 (pIC50) on human recombinant FGFR1 and at human recombinant FGFR2 was 8.70 throughout. The inhibition – broadly, the change of the read-out against control, counted positive when it falls – at 0.001 µM was 5% in experiment [2] and 29% in [3] (1 nM). In addition, the inhibition at 0.01 µM is 42% in experiment [2] and 83% in experiment [3] (10 nM). Further, the inhibition at 0.1 µM stood at 64% in experiment [2] and 90% in experiment [3] (100 nM).
On to `COc1cc(OC)c(F)c(COc2cnc(Nc3ccc(N4CCN(C)CC4)cc3)nc2)c1F` [Example 122], for which the “rate of inhibiting kinase activity v1” value in experiment [4] (1 nM) came to 34%; in experiment [4] (10 nM), 80%; in experiment [4] (100 nM), 94%. For the same molecule, the “rate of inhibiting kinase activity v2” value is 27% in [5] (1 nM), 80% in experiment [5] (10 nM) and 95% in experiment [5] (100 nM). The pIC50 (usually −log10 of the IC50, conventionally taken in molar units) was 8.70 on human recombinant FGFR2, 8.70 on human recombinant FGFR3 and 8.15 in the experiment with FGFR3_S249C/NIH3T3 cells. The inhibition at 0.001 µM was 6% in experiment [2], 19% in experiment [6] and 17% in experiment [7]. Also, the figures for the inhibition at 0.01 µM in experiment [2], in experiment [6] and in experiment [7] were 43%, 82% and 83%, respectively. The figures for the inhibition at 0.1 µM in [2], in [6] and in experiment [7] were 63%, 89% and 90%, respectively. In addition, the “rate of inhibiting kinase activity v3” value in experiment [8] (1 nM) was 45%; in experiment [8] (10 nM) it was 85%; in experiment [8] (100 nM), 97%. In addition, the “Antitumor Activity, % regression” value in experiment [1] was 15%.
In the case of `COc1cc(Nc2ncc(OCc3c(F)c(OC)cc(OC)c3F)cn2)ccc1N1C[C@@H](C)N[C@@H](C)C1` [Example 92], the pIC50 on human recombinant FGFR2 is 8.70; at human recombinant FGFR3, 9.00; in the experiment on FGFR3_S249C/NIH3T3 cells it was 8.15. For the same molecule, the inhibition in vivo at 1 mg/kg/day in experiment [1] was found to be 49%.
On to `COc1cc(OC)c(F)c(COc2cnc(Nc3cc(CN4CCN(C)CC4)n(C)n3)nc2)c1F` [Example 248], for which the negative logarithm of the IC50 (pIC50) was 8.40 at human recombinant FGFR1, 8.30 on human recombinant FGFR3 and 7.30 in the experiment on FGFR3_S249C/NIH3T3 cells. Also, the “rate of inhibiting kinase activity v1” value was 7% in [4] (1 nM), 40% in experiment [4] (10 nM) and 86% in [4] (100 nM). The “rate of inhibiting kinase activity v2” value in experiment [5] (1 nM) stood at 6%; in experiment [5] (10 nM), 25%; in experiment [5] (100 nM), 78%. Moreover, the inhibition at 0.001 µM in [2] is 3%; in experiment [6], -5%; in experiment [7], -3%. Besides, the inhibition at 0.01 µM in experiment [2] worked out at 10%; in [6], 26%; in experiment [7] it was 19%. In addition, the inhibition at 0.1 µM was determined as 43% in experiment [2], 83% in experiment [6] and 82% in experiment [7]. Further, the “rate of inhibiting kinase activity v3” value in experiment [8] (1 nM) was found to be 30%; in experiment [8] (10 nM), 55%; in experiment [8] (100 nM), 91%. This molecule also had an inhibition in vivo at 1 mg/kg/day in [1] of 95%.
On to `COc1cc(OC)c(F)c(COc2cnc(Nc3cnn(C[C@@H](O)CO)c3)nc2)c1F` [Example 116], for which the values for the pIC50 on human recombinant FGFR1, on human recombinant FGFR3 and in the experiment with FGFR3_S249C/NIH3T3 cells were 9.00, 8.70 and 8.10, respectively. In addition, the “rate of inhibiting kinase activity v1” value in experiment [4] (10 nM) came out at 79%; in experiment [4] (100 nM), 95%. The results for the “rate of inhibiting kinase activity v2” value in experiment [5] (1 nM), in experiment [5] (10 nM) and in experiment [5] (100 nM) were 22%, 73% and 95%, respectively. The figures for the inhibition at 0.001 µM in experiment [2], in experiment [6] and in [7] were 8%, 11% and 15%, respectively. The inhibition at 0.01 µM in experiment [2] came to 39%; in experiment [6], 70%; in experiment [7] it was 74%. Further, the inhibition at 0.1 µM in experiment [2] is 63%. Moreover, the entries for the “rate of inhibiting kinase activity v3” value in [8] (1 nM) and in experiment [8] (100 nM) were 41% and 96%, respectively. In [1], the “Antitumor Activity, % regression” value is on record as 54%.
Regarding `COc1cc(Nc2ncc(OCc3c(F)c(OC)cc(OC)c3F)cn2)ccc1N1CCN(C2CCN(C)CC2)CC1` [Example 84], the pIC50 on human recombinant FGFR1 was 8.70; on human recombinant FGFR2, 8.70; on human recombinant FGFR3 it was 9.00; with FGFR3_S249C/NIH3T3 cells, 7.80. Besides, the “Antitumor Activity, % regression” value in experiment [1] was determined as 34%.

The values above are taken from US9464077B2, “Nitrogen-containing aromatic heterocyclic compound” (Astellas Pharma Inc., priority 2012, dated 2016).
